Experiments:
[1] = Stability of the compound in liver microsomes (rat); assay type: in vitro ADME, SD rat; settings: 1 μM compound, 0.5 mg protein/mL
Description: (§1) 2.1.1. working solution: 5 μL of test or control compound stock solution (10 mM DMSO solution) was diluted with 495 μL of acetonitrile (ACN) to obtain an intermediate stock solution (100 μM, 99% ACN).
(§2) 2.2.2 Preparation procedure: An appropriate amount of NADPH powder was weighed and diluted with 10 mM MgCl2 buffer (working solution concentration: 10 mM; final reaction system concentration: 1 mM).
(§3) 2.3.2 Preparation procedure: The appropriate concentration of liver microsomal working solution was prepared in 100 mM potassium phosphate buffer;
(§4) Acetonitrile (ACN) solution at 4° C. containing 200 ng/mL of Tolbutamide and 200 ng/ml of labetalol as internal standards 2.5. Operation steps:
(§5) 2.5.2. Diluting liver microsomes with 100 mM potassium phosphate buffer to a concentration of 0.56 mg/mL.
(§6) 2.5.3. Transferring 445 μL of liver microsomal working solution (0.56 mg/mL) to pre-heated incubation plates T60 and NCF60, and then pre-heating the incubation plates T60 and NCF60 for 10 minutes at 37° C. with shaking. Transferring 54 μL of liver microsomes to each well of the blank plate, adding 6 μL of NAPDH coenzyme solution to the blank plate, and finally transferring 180 μL of termination solution to the blank plate.
(§7) 2.5.4 Adding 5 μL of compound working solution (100 μM) to the incubation plates T60 and NCF60 containing liver microsomes and mixing three times.
(§8) 2.5.5. Adding 50 μL of buffer to the NCF60 plate and mixing three times, starting the timer and incubating at 37° C. for 60 min with the plate shaking.
(§9) 2.5.6. Adding 180 μL of quenching solution and 6 μL of NAPDH coenzyme working solution sequentially to quenching plate TO, making sure that the plate was cold to prevent volatilization of the incubation solution.
(§10) 2.5.7. For plate T60, mixing well three times and immediately transferring 54 μL of mixing solution (0-min time point) to quenching plate TO, then adding 44 μL of NAPDH coenzyme working solution to incubation plate T60. Starting the timer:
(§11) 2.5.8. At the 5, 15, 30, 45 and 60 minute time points, adding 180 μL of quenching solution to the quenching plate and transferring 60 μL of reaction solution from the T60 plate to the quenching plate at each time point.
(§12) 2.5.9. For NCF60 plates, mixing well and transferring 60 μL of reaction solution from the NCF60 incubating solution to a quenching plate containing 180 μL of quenching solution at 60th minute.
(§13) 2.5.10. All plates were mixed on a shaker for 10 min and then centrifuged at 4000 rpm at 4° C. for 20 min.
(§14) 2.5.11. Transferring 80 μL of supernatant to 240 μL of HPLC water and mixing on a
(§15) 2.6.1. Calculating t1/2 and Clint (mic) values based on first-order elimination kinetics: […]

[2] = Stability of the compound in liver microsomes (human); assay type: in vitro ADME; settings: 1 μM compound, 0.5 mg protein/mL
Description: as §1, §2, §3, §4, §5, §6, §7, §8, §9, §10, §11, §12, §13, §14, §15

[3] = Stability of the compound in liver microsomes (mouse); assay type: in vitro ADME, CD-1 mouse; settings: 1 μM compound, 0.5 mg protein/mL
Description: as §1, §2, §3, §4, §5, §6, §7, §8, §9, §10, §11, §12, §13, §14, §15

Nav1.8 sodium channel = Nav1.8 sodium channel (Homo sapiens (Human), UniProt Q9Y5Y9); assay: NaV1.8 blocking activity, manual patch clamp; assay type: cell-based; settings: CHO cell line stably expressing Nav1.8
Description: The NaV1.8 blocking activity was determined by using a manual patch clamp technique to detect the effect of the subject on the channel currents of stably overexpressed Nav1.8.
CHO cell line stably expressing the Nav1.8 sodium channel was used for the experiments, gene information: sodium channel, voltage-gated, type 8, alpha (SCN10A), cDNA strictly similar to GenBank accession number: NM 006514.
Cells were cultured in HAM'S/F-12 medium containing 10% foetal bovine serum and 10 μg/mL Blasticidin, 200 μg/mL Hygromycin B, and 100 μg/mL Zeocin at 37° C., 5% CO2. For expansion or maintenance cultures, cells were treated with 0.25%-Trypsin-EDTA, washed and centrifuged, and then inoculated in 6-cm cell culture dishes with 2.5×10^5lls per cell culture dish (final volume: 5 mL).
Prior to the patch clamp detection, cells were separated with 0.25%-Trypsin-EDTA and 6.5×10^3 cells were spread onto coverslips and incubated (final volume: 500 μL) in 24-well plates for 18 hours, then the test was performed.
50 mM CsCl, 10 mM NaCl, 10 mM HEPES, 60 mM CsF, 20 mM EGTA, and pH was adjusted to 7.2 with CsOH. • Instrument information is provided in Table 2 below:
Prior to Nav1.8 channel current testing, a blank control solution (DMSO) was diluted into 10 ml of extracellular fluid as the working solution. Positive controls and subjects were first diluted with different doses of DMSO depending on the final concentration before being diluted as working solution using extracellular fluid. 100 nM TTX was added to each working solution to block the TTX-S current. The working solution was sonicated for 20 min before performing the patch clamp test detection.
Patch clamp manipulation: firstly, the capillary glass tube was drawn into a recording electrode using a microelectrode puller, then the electrode filled with intracellular fluid was loaded into the microelectrode holder, and the microelectrode manipulator was manoeuvred under an inverted microscope to immerse the electrode into the extracellular fluid and record the electrode resistance (Rpip). The electrode was then slowly contacted to the cell surface and negative pressure suction was given to form a GQ2 seal. At this time, fast capacitance compensation was performed and negative pressure was continually applied to suction through the cell membrane to form a whole-cell recording pattern. Finally, slow capacitance compensation was performed and experimental parameters such as series resistance (Rs) were recorded. No leakage compensation was given.
Drug administration was initiated when the Nav1.8 current was stabilized for whole-cell recordings, and the next concentration was detected after each drug concentration had acted for approximately 5 min (or until the current was stable). Cell-lined coverslips were placed in the recording bath under an inverted microscope, and the blank control external solution as well as the working solution of the compound to be tested flowed sequentially from low to high concentrations through the recording bath by using gravitational perfusion and thus acted on the cells, and a peristaltic pump was used to exchange fluids during the recording. The current detected by each cell in the compound-free external fluid served as its own control. Each concentration was repeated independently 2-3 times. All electrophysiological experiments were performed at room temperature.
The voltage stimulation scheme for whole-cell patch-clamp recording of Nav1.8 currents was as follows: when a whole-cell seal was formed, the voltage was clamped at −120 mV. The resting state recording of sodium currents was performed by maintaining the voltage for 5s and then depolarizing it to 0 mV, and then administering a depolarizing pulse (TP1) to 0 m V for 50 ms for detecting the resting state sodium currents. For half-inactivated state recording, the voltage was first stepped at different voltages and maintained for 5s and then a depolarizing pulse was given to 0 mV to detect the Vhalf. […]

CYP2C19 = CYP2C19 (Homo sapiens (Human), UniProt P33261); assay: Human liver microsomal CYP inhibition test, CYP2C19; assay type: in vitro ADME; settings: human liver microsomes 0.2 mg/mL; substrate S-mephenytoin
Description: (§16) 3.1 Buffer solutions: (1) potassium phosphate 100 mM; (2) magnesium chloride, 33 mM;
(§17) 3.2.3 Reservoir for compounds to be tested: Dissolving the compounds to be tested in DMSO to form a 10 mM DMSO solution.
(§18) 3.5.3 Adding 20 μL of substrate solution to the appropriate wells and 20 μL of potassium phosphate buffer to the blank wells;
(§19) 3.5.4 Adding 2 μL of different concentrations of target compounds (final concentrations from 0.05 μM to 50 μM, 7 concentrations in total) or standard inhibitors to each well, with 2 μL of methanol solution in the non-inhibitor and blank wells;
(§20) 3.5.5 Adding 1.012 mL of liver microsomes to 78.988 mL of potassium phosphate buffer, then adding 158 μL of liver microsomes solution to all wells; preheating the well plate for 10 minutes in a 37° C. water bath;
(§21) 3.5.6 Weighing 129.1 mg NADPH (purchased from SyncoZymes Co. Ltd.) and adding to 15.0 mL of 33 Mm MgCl2 solution to give a 10 mM concentration, adding 20 μL to each well;
(§22) 3.5.7 Mixing and incubating the well plate in a 37° C. water bath for 10 minutes, then adding 400 μL of cold termination solution at the appropriate time point;
(§23) 3.5.8 Centrifuging the sample at 4000 rpm for 20 minutes to precipitate the protein. Transferring 200 μL of supernatant to 100 μL of HPLC water and shaking for 10 minutes. The samples were analyzed by LC/MS/MS;
(§24) Percentage inhibition was plotted for blank control and different concentrations of target compounds by using XL fitting or SigmaPlot and the data were analyzed by non-linear regression. IC50 values were determined by using either 3-parameter or 4-parameter logistic equations.

CYP3A-M = CYP3A-M (Homo sapiens, UniProt P08684); assay: Human liver microsomal CYP inhibition test, CYP3A-M (midazolam); assay type: in vitro ADME; settings: human liver microsomes 0.2 mg/mL; substrate Midazolam
Description: as §16, §17
(§25) 3.4.1 Preparation of human liver microsomal working solution (1.27×) (final concentration: 0.2 mg/mL)
as §18, §19, §20, §21, §22, §23, §24

CYP1A2 = CYP1A2 (Homo sapiens (Human), UniProt P05177); assay: Human liver microsomal CYP inhibition test, CYP1A2; assay type: in vitro ADME; settings: microsomes
Description: as §16, §17, §25, §18, §19, §20, §21, §22, §23, §24

CYP2C9 = CYP2C9 (Homo sapiens (Human), UniProt P11712); assay: Human liver microsomal CYP inhibition test, CYP2C9; assay type: in vitro ADME; settings: human liver microsomes 0.2 mg/mL; substrate Diclofenac
Description: as §16, §17, §25, §18, §19, §20, §21, §22, §23, §24

CYP2D6 = CYP2D6 (Homo sapiens (Human), UniProt P10635); assay: Human liver microsomal CYP inhibition test, CYP2D6; assay type: in vitro ADME; settings: human liver microsomes 0.2 mg/mL; substrate Dextromethorphan
Description: as §16, §17, §25, §18, §19, §20, §21, §22, §23, §24

Chain of Nav1.8 sodium channel (Q9Y5Y9 whole entry): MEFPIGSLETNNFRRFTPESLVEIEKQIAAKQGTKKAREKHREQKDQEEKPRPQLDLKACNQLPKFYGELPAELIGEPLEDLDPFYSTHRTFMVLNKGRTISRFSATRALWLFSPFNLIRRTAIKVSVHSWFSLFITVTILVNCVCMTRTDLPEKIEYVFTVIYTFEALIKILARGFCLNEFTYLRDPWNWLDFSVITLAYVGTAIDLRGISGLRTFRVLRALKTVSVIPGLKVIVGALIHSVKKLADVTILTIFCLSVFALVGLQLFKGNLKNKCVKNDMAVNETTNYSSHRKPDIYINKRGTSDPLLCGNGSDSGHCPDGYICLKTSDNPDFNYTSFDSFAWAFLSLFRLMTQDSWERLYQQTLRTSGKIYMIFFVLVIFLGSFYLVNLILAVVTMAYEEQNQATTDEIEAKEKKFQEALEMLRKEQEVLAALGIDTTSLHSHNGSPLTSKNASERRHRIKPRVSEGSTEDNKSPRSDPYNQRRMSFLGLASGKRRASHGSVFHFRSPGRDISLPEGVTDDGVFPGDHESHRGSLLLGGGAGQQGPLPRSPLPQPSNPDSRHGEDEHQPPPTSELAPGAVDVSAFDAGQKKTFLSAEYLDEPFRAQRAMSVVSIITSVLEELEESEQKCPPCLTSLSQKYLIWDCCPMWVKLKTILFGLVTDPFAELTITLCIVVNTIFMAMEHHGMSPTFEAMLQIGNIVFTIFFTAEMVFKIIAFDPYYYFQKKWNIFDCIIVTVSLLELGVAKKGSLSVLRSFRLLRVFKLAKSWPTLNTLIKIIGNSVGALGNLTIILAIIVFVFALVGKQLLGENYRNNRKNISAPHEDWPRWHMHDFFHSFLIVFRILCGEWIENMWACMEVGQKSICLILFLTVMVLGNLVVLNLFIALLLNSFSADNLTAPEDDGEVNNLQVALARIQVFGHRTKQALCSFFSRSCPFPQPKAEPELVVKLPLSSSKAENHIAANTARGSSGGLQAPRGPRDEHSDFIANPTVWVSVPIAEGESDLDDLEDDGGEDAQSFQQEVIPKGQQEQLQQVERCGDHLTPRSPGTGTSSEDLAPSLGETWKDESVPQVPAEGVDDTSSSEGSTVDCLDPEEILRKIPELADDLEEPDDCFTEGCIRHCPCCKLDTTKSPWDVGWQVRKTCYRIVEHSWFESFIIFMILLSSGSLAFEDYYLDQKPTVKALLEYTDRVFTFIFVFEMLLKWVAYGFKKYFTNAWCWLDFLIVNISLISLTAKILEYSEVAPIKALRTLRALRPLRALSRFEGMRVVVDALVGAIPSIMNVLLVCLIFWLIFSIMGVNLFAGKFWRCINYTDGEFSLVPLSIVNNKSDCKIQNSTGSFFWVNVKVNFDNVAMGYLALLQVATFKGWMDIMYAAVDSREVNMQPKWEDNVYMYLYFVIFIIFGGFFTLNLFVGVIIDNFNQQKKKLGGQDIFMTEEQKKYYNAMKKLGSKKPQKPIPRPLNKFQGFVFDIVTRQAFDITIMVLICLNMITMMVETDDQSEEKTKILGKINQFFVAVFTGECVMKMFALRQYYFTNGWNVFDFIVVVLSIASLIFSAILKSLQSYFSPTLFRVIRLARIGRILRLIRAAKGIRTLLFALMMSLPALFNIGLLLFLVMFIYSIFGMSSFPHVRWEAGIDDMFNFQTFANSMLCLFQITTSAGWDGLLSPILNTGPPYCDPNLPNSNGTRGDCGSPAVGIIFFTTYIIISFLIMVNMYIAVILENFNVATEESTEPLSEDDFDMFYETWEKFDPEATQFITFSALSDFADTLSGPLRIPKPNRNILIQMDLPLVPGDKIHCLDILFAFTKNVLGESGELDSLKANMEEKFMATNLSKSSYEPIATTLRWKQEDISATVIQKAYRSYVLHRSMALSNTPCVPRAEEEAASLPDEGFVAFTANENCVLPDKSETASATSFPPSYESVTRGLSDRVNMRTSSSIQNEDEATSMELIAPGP
Chain of CYP1A2 (P05177 whole entry): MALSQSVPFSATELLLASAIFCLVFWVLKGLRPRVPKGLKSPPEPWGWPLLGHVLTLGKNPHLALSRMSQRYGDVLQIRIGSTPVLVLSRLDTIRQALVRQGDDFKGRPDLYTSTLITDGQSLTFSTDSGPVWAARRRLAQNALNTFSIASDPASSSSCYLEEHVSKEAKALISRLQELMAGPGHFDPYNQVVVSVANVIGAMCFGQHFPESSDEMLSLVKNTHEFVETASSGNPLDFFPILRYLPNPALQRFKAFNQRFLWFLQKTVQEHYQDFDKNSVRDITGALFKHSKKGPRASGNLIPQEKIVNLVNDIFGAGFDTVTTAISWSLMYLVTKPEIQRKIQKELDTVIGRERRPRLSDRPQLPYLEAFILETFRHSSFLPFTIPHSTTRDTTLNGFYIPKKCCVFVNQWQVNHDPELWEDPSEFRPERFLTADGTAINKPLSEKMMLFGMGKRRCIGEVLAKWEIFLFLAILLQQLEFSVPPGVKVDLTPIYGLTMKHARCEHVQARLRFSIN
Chain of CYP2D6 (P10635 whole entry): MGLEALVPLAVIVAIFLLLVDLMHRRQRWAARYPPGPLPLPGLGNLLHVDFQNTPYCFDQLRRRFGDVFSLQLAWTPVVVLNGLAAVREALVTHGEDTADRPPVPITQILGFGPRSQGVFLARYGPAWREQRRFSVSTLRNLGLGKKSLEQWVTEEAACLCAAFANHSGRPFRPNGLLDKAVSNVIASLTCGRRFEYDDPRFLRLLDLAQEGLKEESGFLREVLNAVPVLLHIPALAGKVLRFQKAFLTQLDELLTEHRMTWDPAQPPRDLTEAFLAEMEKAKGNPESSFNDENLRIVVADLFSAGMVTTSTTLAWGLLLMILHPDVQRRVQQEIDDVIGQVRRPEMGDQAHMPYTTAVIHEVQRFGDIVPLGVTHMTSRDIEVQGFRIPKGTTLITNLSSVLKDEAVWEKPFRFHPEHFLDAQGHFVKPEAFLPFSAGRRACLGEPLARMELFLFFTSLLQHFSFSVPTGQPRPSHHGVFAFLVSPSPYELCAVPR
Chain of CYP2C9 (P11712 whole entry): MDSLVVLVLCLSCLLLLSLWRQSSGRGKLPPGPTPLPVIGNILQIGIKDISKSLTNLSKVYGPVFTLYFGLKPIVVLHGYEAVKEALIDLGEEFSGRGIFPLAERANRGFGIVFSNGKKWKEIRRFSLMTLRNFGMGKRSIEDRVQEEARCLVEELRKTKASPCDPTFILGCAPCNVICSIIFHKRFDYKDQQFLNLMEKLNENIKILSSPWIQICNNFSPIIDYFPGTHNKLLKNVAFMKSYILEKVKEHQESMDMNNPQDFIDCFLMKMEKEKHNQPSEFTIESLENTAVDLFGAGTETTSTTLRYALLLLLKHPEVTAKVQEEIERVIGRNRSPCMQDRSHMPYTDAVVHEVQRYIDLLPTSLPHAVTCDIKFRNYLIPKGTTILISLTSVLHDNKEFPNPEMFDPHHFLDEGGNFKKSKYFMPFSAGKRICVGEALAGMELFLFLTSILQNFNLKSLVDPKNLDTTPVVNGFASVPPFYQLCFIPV
Chain of CYP2C19 (P33261 whole entry): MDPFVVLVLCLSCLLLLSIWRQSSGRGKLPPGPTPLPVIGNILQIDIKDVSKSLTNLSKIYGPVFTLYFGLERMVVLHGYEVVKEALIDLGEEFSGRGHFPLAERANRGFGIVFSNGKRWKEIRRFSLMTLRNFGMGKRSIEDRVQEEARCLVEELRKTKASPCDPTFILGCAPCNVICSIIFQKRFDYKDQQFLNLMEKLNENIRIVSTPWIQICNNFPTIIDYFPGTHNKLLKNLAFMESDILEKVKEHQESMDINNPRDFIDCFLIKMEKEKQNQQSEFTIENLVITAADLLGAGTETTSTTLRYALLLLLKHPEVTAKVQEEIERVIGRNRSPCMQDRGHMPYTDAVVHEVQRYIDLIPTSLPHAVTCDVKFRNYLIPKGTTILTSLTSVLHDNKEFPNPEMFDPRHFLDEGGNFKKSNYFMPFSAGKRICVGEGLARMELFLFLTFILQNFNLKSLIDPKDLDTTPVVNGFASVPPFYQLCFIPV
Chain of CYP3A-M (P08684 2-503 limits assumed): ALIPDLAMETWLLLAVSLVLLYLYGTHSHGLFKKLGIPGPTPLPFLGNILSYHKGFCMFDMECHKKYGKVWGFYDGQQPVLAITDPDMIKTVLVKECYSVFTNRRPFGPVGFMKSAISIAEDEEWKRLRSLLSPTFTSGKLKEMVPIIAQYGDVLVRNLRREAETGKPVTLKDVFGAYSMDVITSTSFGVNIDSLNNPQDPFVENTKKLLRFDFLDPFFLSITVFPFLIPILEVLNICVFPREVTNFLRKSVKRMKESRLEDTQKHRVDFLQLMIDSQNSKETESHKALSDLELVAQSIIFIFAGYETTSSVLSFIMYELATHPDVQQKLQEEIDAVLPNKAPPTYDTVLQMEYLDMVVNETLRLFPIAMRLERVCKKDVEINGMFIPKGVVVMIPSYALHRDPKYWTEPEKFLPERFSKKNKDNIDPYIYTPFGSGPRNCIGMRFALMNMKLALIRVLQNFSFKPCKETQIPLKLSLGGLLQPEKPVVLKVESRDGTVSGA

Structure (SMILES)	Rat liver microsomes T½ ([1]; 37° C.)	Rat liver microsomes Residual (T = 60 min) ([1]; T = 60 min)	Human liver microsomes T½ ([2]; 37° C.)	Human liver microsomes Residual (T = 60 min) ([2]; T = 60 min)	Mouse liver microsomes T½ ([3]; 37° C.)	Mouse liver microsomes Residual (T = 60 min) ([3]; T = 60 min)	Blocking rate(%) @10 nM (Nav1.8 sodium channel)	IC50 (Nav1.8 sodium channel)	IC50 (CYP2C19)	IC50 (CYP3A-M)	IC50 (CYP1A2)	IC50 (CYP2C9)	IC50 (CYP2D6)	Blocking rate (%) @3 nM (Nav1.8 sodium channel; 3 nM)
COc1c([C@H]2[C@H](C(=O)Nc3ccnc(C(N)=O)c3)N[C@@](C)(C(F)(F)F)[C@H]2C)ccc(F)c1F [Compound 1, 4-((2R,3S,4S,5R)-3-(3,4-difluoro-2-methoxyphenyl)-4,5-dimethyl-5-(trifluoromethyl)pyrrolidine-2-carboxamido)pyridine amide]	18.9 min	11.1%	80.6 min	58.4%	41.9 min	37.1%	97.98%	1.3 nM						
COc1c([C@H]2[C@H](C(=O)Nc3ccc(F)c(C(=N)NO)c3)N[C@@](C)(C(F)(F)F)[C@H]2C)ccc(F)c1F.Cl [Compound 10, (2R,3S,4S,5R)-3-(3,4-difluoro-2-methoxyphenyl)-aza-(4-fluoro-3-(aza-hydroxycarbamimidoyl)phenyl)-4,5-dimethyl-5-(trifluoromethyl) pyrrolidine-2-carboxamide hydrochloride]							99.13%		3.05 µM	39.3 µM	> 50 µM	> 50 µM	> 50 µM	95.18%

— patent US20250296922A1, “POLYSUBSTITUTED PYRROLIDINE DERIVATIVE, PREPARATION METHOD THEREFOR AND USE THEREOF” (SHANGHAI WENNAI THERAPEUTICS CO LTD, priority 2023, published 2025)
